Key:
[1] = target: T1, AuroraA-TPX2 (Homo sapiens, UniProt O14965); experiment: AuroraA-TPX2 Homogeneous Time Resolved Fluorescent (HTRF) kinase assay; assay type: biochemical; details: average; read-out: AurA_IC50_IP (uM Avg)
T1 construct: 20 μL of AuroraA-TPX2 KD GST for a final volume of about 41 μL; GST
T1 sequence (O14965 133-383 limits assumed): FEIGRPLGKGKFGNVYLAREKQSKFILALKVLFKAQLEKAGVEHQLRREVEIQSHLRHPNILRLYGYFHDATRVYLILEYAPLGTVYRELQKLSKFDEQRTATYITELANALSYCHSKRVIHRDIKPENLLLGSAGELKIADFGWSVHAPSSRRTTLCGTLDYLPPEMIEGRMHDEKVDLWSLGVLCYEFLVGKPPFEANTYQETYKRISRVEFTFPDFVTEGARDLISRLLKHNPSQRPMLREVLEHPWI
T1 sequence (Q9ULW0 1-43 partner limits assumed): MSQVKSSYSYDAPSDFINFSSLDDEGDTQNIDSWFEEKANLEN
Procedure, shortened: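 HTRF read-out (Eu 615 nm to APC 655 nm) of phosphorylated biotin-PLK, detected with 0.02 nM europium anti-phosphoPLK antibody and 0.0005 mg/mL SA-APC after overnight equilibration.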

[2] = target: T2, AuroraB (Homo sapiens, UniProt Q96GD4); experiment: AuroraB Homogeneous Time Resolved Fluorescent (HTRF) kinase assay; assay type: biochemical; details: average; read-out: AurB_IC50_IP (uM Avg)
T2 construct: 20 μL of AuroraB FL H is for a final volume of 41 μL; His
T2 sequence (Q96GD4 whole entry): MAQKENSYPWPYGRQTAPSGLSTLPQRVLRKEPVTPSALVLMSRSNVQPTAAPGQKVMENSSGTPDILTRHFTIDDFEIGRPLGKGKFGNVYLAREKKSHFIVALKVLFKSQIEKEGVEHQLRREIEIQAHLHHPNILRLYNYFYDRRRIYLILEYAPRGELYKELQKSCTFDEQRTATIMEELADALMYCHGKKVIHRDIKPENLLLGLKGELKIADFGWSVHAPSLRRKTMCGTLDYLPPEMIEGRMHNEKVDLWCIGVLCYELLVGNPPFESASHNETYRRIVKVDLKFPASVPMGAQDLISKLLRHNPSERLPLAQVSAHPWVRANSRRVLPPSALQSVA
Procedure, shortened: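 Read-out is time-resolved FRET between europium anti-phospho-H3 antibody and streptavidin-APC, added in EDTA buffer to stop the reaction and equilibrated about 60 min (ex 320, em 615 and 655 nm). Preceding reaction: ~90 min, full-length enzyme, ATP, 0.1 μM biotin-Histone H3 substrate, Mg/Mn HEPES buffer pH 7.5.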

| Structure (SMILES) | IC50 [1] [µM] | IC50 [2] [µM] |
| --- | --- | --- |
| Cc1csc(-c2nnc(Nc3ccc(Oc4ccnc5cc(C(N)=O)ccc45)cc3)c3ccccc23)n1 [compound 95, 4-((4-((4-(4-methyl-1,3-thiazol-2-yl)-1-phthalazinyl)amino)phenyl)oxy)-7-quinolinecarboxamide] | 0.027 | 0.002 |
| COc1cc2nccc(Oc3ccc(Nc4nnc(-c5ccccc5)c5ccccc45)cc3)c2cn1 [compound 96, N-(4-((7-(methyloxy)-1,6-naphthyridin-4-yl)oxy)phenyl)-4-phenyl-1-phthalazinamine] | 0.026 | 0.005 |
| COc1cnc2c(Oc3ccc(Nc4nnc(N5CCN6CCC[C@H]6C5)c5ccccc45)cc3)ccnc2c1 [compound 97, 4-((8aS)-hexahydropyrrolo[1,2-a]pyrazin-2(1H)-yl)-N-(4-((7-(methyloxy)-1,5-naphthyridin-4-yl)oxy)phenyl)-1-phthalazinamine] | 0.01 | 0.002 |
| COc1cc2nccc(Oc3ccc(Nc4nnc(-c5ccc(C)cn5)c5ccccc45)cc3)c2cn1 [compound 103, N-(4-((7-(methyloxy)-1,6-naphthyridin-4-yl)oxy)phenyl)-4-(5-methyl-2-pyridinyl)-1-phthalazinamine] | 0.035 | 0.004 |
| COc1cc2nccc(Sc3ccc(Nc4nnc(-c5ccccc5)c5ccccc45)cc3)c2cc1OC [compound 104, N-(4-((6,7-bis(methyloxy)-4-quinolinyl)thio)phenyl)-4-phenyl-1-phthalazinamine] | 0.036 | 0.042 |
| N#Cc1ccc2c(Oc3ccc(Nc4nnc(-c5ccccc5)c5ccccc45)cc3)ccnc2c1 [compound 105, 4-((4-((4-phenyl-1-phthalazinyl)amino)phenyl)oxy)-7-quinolinecarbonitrile] | 0.039 | 0.003 |
| COc1cnc2c(Oc3ccc(Nc4nnc(-c5ccccc5)cc4C)cc3)ccnc2c1 [compound 107, 4-methyl-N-(4-((7-(methyloxy)-1,5-naphthyridin-4-yl)oxy)phenyl)-6-phenyl-3-pyridazinamine] | 0.018 | 0.005 |
| CCc1cc(-c2ccccc2)nnc1Nc1ccc(Oc2ccnc3cc(OC)cnc23)cc1 [compound 108, 4-ethyl-N-(4-((7-(methyloxy)-1,5-naphthyridin-4-yl)oxy)phenyl)-6-phenyl-3-pyridazinamine] | 0.016 | 0.004 |
| COc1cc2nccc(Oc3ccc(Nc4nnc(N5CCN(C)CC5)c5ccccc45)cc3)c2cn1 [compound 109, N-(4-((7-(methyloxy)-1,6-naphthyridin-4-yl)oxy)phenyl)-4-(4-methyl-1-piperazinyl)-1-phthalazinamine] | 0.06 | 0.001 |
| COc1cnc2c(Oc3ccc(Nc4nnc(-c5cccc(C)n5)c5ccccc45)cc3)ccnc2c1 [compound 111, N-(4-((7-(methyloxy)-1,5-naphthyridin-4-yl)oxy)phenyl)-4-(6-methyl-2-pyridinyl)-1-phthalazinamine] | 0.04 | 0.005 |
| COc1cnc2c(Oc3ccc(Nc4nnc(-c5cccc(CO)n5)c5ccccc45)cc3)ccnc2c1 [compound 114, (6-(4-((4-((7-(methyloxy)-1,5-naphthyridin-4-yl)oxy)phenyl)amino)-1-phthalazinyl)-2-pyridinyl)methanol] | 0.036 | 0.005 |
| Fc1cc(Nc2nnc(-c3ccccc3)c3ccccc23)ccc1Oc1ccnc2ccccc12 [compound 115, N-(3-fluoro-4-(4-quinolinyloxy)phenyl)-4-phenyl-1-phthalazinamine] | 0.163 | 0.006 |
| COc1cnc2c(Oc3ccc(Nc4nnc(-c5cc(C)ccn5)c5ccccc45)cc3)ccnc2c1 [compound 116, N-(4-((7-(methyloxy)-1,5-naphthyridin-4-yl)oxy)phenyl)-4-(4-methyl-2-pyridinyl)-1-phthalazinamine] | 0.062 | 0.011 |
| COc1ccc2c(Oc3ccc(Nc4nnc(-c5cc(C)ccn5)c5ccccc45)cc3)ccnc2c1 [compound 118, N-(4-((7-(methyloxy)-4-quinolinyl)oxy)phenyl)-4-(4-methyl-2-pyridinyl)-1-phthalazinamine] | 0.136 | 0.009 |
| COc1ccccc1-c1nnc(Nc2ccc(Oc3ccnc4cc(C#N)ccc34)cc2)c2ccccc12 [compound 119, 4-((4-((4-(2-(methyloxy)phenyl)-1-phthalazinyl)amino)phenyl)oxy)-7-quinolinecarbonitrile] | 0.175 | 0.007 |
| COCc1cccc(-c2nnc(Nc3ccc(Oc4ccnc5cc(OC)cnc45)cc3)c3ccccc23)n1 [compound 120, 4-(6-((methyloxy)methyl)-2-pyridinyl)-N-(4-((7-(methyloxy)-1,5-naphthyridin-4-yl)oxy)phenyl)-1-phthalazinamine] | 0.019 | 0.003 |
| Cc1ccc(-c2nnc(Nc3ccc(Oc4ccnc5cc(C#N)ccc45)cc3)c3ccccc23)nc1 [compound 122, 4-((4-((4-(5-methyl-2-pyridinyl)-1-phthalazinyl)amino)phenyl)oxy)-7-quinolinecarbonitrile] | 0.022 | 0.003 |
| COc1cc2nccc(Nc3ccc(Nc4nnc(-c5ccccc5)c5ccccc45)cc3)c2cn1 [compound 124, N-(7-(methyloxy)-1,6-naphthyridin-4-yl)-N′-(4-phenyl-1-phthalazinyl)-1,4-benzenediamine] | 0.042 | 0.002 |

Continued, values first:

| IC50 [1] [µM] | IC50 [2] [µM] | Structure (SMILES) |
| --- | --- | --- |
| 0.016 | 0.007 | COc1cc2ncnc(Oc3ccc(Nc4nnc(-c5ccccc5)c5ccccc45)cc3)c2cc1OC [compound 98, N-(4-((6,7-bis(methyloxy)-4-quinazolinyl)oxy)phenyl)-4-phenyl-1-phthalazinamine] |
| 0.01 | 0.002 | COc1cnc2c(Oc3ccc(Nc4nnc(-c5cccc(OC)n5)c5ccccc45)cc3)ccnc2c1 [compound 99, N-(4-((7-(methyloxy)-1,5-naphthyridin-4-yl)oxy)phenyl)-4-(6-(methyloxy)-2-pyridinyl)-1-phthalazinamine] |
| 0.038 | 0.006 | COc1ccc2c(Oc3ccc(Nc4nnc(-c5cccc(OC)n5)c5ccccc45)cc3)ccnc2c1 [compound 100, 4-(6-(methyloxy)-2-pyridinyl)-N-(4-((7-(methyloxy)-4-quinolinyl)oxy)phenyl)-1-phthalazinamine] |
| 0.01 | 0.01 | COc1cccc(-c2nnc(Nc3ccc(Oc4ccnc5cc(OC)c(OC)cc45)cc3)c3ccccc23)n1 [compound 101, N-(4-((6,7-bis(methyloxy)-4-quinolinyl)oxy)phenyl)-4-(6-(methyloxy)-2-pyridinyl)-1-phthalazinamine] |
| 0.028 | 0.003 | COc1cccc(-c2nnc(Nc3ccc(Oc4ccnc5cc(C#N)ccc45)cc3)c3ccccc23)n1 [compound 102, 4-((4-((4-(6-(methyloxy)-2-pyridinyl)-1-phthalazinyl)amino)phenyl)oxy)-7-quinolinecarbonitrile] |
| 0.01 | 0.038 | COc1cc2nccc(Oc3ccc(Nc4nnc(-c5ccc(C(C)(C)C)cc5)c5ccccc45)cc3)c2cc1OC [compound 106, N-(4-((6,7-bis(methyloxy)-4-quinolinyl)oxy)phenyl)-4-(4-(1,1-dimethylethyl)phenyl)-1-phthalazinamine] |
| 0.043 | 0.002 | COc1cc2nccc(Oc3ccc(Nc4nnc(-c5cccc(C)n5)c5ccccc45)cc3)c2cn1 [compound 110, N-(4-((7-(methyloxy)-1,6-naphthyridin-4-yl)oxy)phenyl)-4-(6-methyl-2-pyridinyl)-1-phthalazinamine] |
| 0.015 | 0.003 | COc1cc2nccc(Oc3ccc(Nc4nnc(-c5cccc(CO)n5)c5ccccc45)cc3)c2cc1OC [compound 112, (6-(4-((4-((6,7-bis(methyloxy)-4-quinolinyl)oxy)phenyl)amino)-1-phthalazinyl)-2-pyridinyl)methanol] |
| 0.014 | 0.011 | COc1cc2nccc(Oc3ccc(Nc4nnc(-c5cccc(COC(C)=O)n5)c5ccccc45)cc3)c2cc1OC [compound 113, (6-(4-((4-((6,7-bis(methyloxy)-4-quinolinyl)oxy)phenyl)amino)-1-phthalazinyl)-2-pyridinyl)methyl acetate] |
| 0.057 | 0.043 | COc1cc2nccc(Oc3ccc(Nc4nnc(-c5cc(C)ccn5)c5ccccc45)cc3)c2cc1OC [compound 117, N-(4-((6,7-bis(methyloxy)-4-quinolinyl)oxy)phenyl)-4-(4-methyl-2-pyridinyl)-1-phthalazinamine] |
| 0.041 | 0.007 | COc1cc2nccc(Oc3ccc(Nc4nnc(-c5cc(C)ccn5)c5ccccc45)cc3)c2cn1 [compound 121, N-(4-((7-(methyloxy)-1,6-naphthyridin-4-yl)oxy)phenyl)-4-(4-methyl-2-pyridinyl)-1-phthalazinamine] |
| 0.132 | 0.015 | COc1cc2ncnc(Oc3ccc(Nc4nnc(-c5cc(C)ccn5)c5ccccc45)cc3)c2cc1OC [compound 123, N-(4-((6,7-bis(methyloxy)-4-quinazolinyl)oxy)phenyl)-4-(4-methyl-2-pyridinyl)-1-phthalazinamine] |

Source: patent publication US8557816B2, “Aurora kinase modulators and method of use” (Amgen Inc., priority 2007, dated 2013)
